{"source": "PubChem BioAssay AID328", "about": "(DTP/NCI, 2004)", "system": "BDF1 mice, P388 leukemia ip, median survival T/C", "assay": "NCI In Vivo Anticancer Drug Screen. Data for tumor model P388 Leukemia (intraperitoneal) in B6D2F1 (BDF1) mice", "conditions": "endpoint: median survival time, higher = longer survival", "outline": "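In tumour-bearing mice, survival after compound treatment is set against the vehicle group and given as a quotient.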", "key": {"[1]": {"conditions": "dose: 100.0 mg/kg/injection, schedule: Q04DX003 (ip), vehicle: saline with Tween-80"}, "[2]": {"conditions": "dose: 200.0 mg/kg/injection, schedule: Q04DX003 (ip), vehicle: saline with Tween-80"}, "[3]": {"conditions": "dose: 400.0 mg/kg/injection, schedule: Q04DX003 (ip), vehicle: saline with Tween-80"}, "[4]": {"conditions": "dose: 200.0 mg/kg/injection, schedule: Q01DX009 (ip), vehicle: saline with Tween-80"}, "[5]": {"conditions": "dose: 100.0 mg/kg/injection, schedule: Q01DX009 (ip), vehicle: saline with Tween-80"}, "[6]": {"conditions": "dose: 400.0 mg/kg/injection, schedule: Q01DX009 (ip), vehicle: saline with Tween-80"}}, "note": "Inconclusive results and toxic doses are left out."}
{"smiles": "C=C1C(=O)OC2CC3(C)OC3C3OC3C3=CC(OC3=O)C12", "note": "(configuration not stated)", "values": [{"measurement": "T/C", "setting": "dose: 1.25 mg/kg/injection, schedule: Q01DX010 (ip), vehicle: saline", "value": "115 % of control"}, {"measurement": "T/C", "setting": "dose: 2.5 mg/kg/injection, schedule: Q01DX010 (ip), vehicle: saline", "value": "115 % of control"}, {"measurement": "T/C", "setting": "dose: 5.0 mg/kg/injection, schedule: Q01DX010 (ip), vehicle: saline", "value": "115 % of control"}, {"measurement": "T/C", "setting": "dose: 10.0 mg/kg/injection, schedule: Q01DX010 (ip), vehicle: saline", "value": "100 % of control"}]}
{"smiles": "COc1ccc(C=Nc2ccccc2)cc1", "values": [{"measurement": "T/C", "setting": "[1]", "value": "100 % of control"}, {"measurement": "T/C", "setting": "[2]", "value": "100 % of control"}, {"measurement": "T/C", "setting": "[3]", "value": "100 % of control"}]}
{"smiles": "O=S(=O)(OCCF)c1cc(Cl)c(Cl)cc1Cl", "values": [{"measurement": "T/C", "setting": "dose: 50.0 mg/kg/injection, schedule: Q01DX005 (ip), vehicle: Klucel (hydroxypropylcellulose) (HPC)", "value": "113 % of control"}]}
{"smiles": "CCCCC(CC)C1NCCO1", "note": "(configuration not stated)", "values": [{"measurement": "T/C", "setting": "dose: 50.0 mg/kg/injection, schedule: Q01DX009 (ip), vehicle: saline with Tween-80", "value": "103 % of control"}, {"measurement": "T/C", "setting": "[1]", "value": "110 % of control"}, {"measurement": "T/C", "setting": "[4]", "value": "92 % of control"}, {"measurement": "T/C", "setting": "[2]", "value": "115 % of control"}, {"measurement": "T/C", "setting": "[3]", "value": "115 % of control"}]}
{"smiles": "Cc1cc([N+](=O)[O-])c2ccccc2c1N(CC(=O)O)S(=O)(=O)c1ccccc1", "values": [{"measurement": "T/C", "setting": "[5]", "value": "100 % of control"}, {"measurement": "T/C", "setting": "[1]", "value": "100 % of control"}, {"measurement": "T/C", "setting": "[4]", "value": "112 % of control"}, {"measurement": "T/C", "setting": "[2]", "value": "100 % of control"}, {"measurement": "T/C", "setting": "[6]", "value": "120 % of control"}, {"measurement": "T/C", "setting": "[3]", "value": "121 % of control"}]}
{"smiles": "CC1=CC(=O)C2=C(C)CCC3C(C)C(=O)OC3C12", "note": "(configuration not stated)", "values": [{"measurement": "T/C", "setting": "[1]", "value": "100 % of control"}, {"measurement": "T/C", "setting": "[2]", "value": "111 % of control"}, {"measurement": "T/C", "setting": "[3]", "value": "116 % of control"}]}
{"smiles": "COC(=O)C1C(O)C(C)C(=O)C(C)/C=C\\C=C(C)C(=O)Nc2c(C)c(OC(C)=O)c3c(c2O)C(=O)C(C)=C2OCOC(=C23)C(C)=CC(C)(O)C(O)C(C)C1O", "note": "(configuration not stated)", "values": [{"measurement": "T/C", "setting": "dose: 100.0 mg/kg/injection, schedule: Q01DX009 (ip), vehicle: Klucel (hydroxypropylcellulose) (HPC)", "value": "101 % of control"}, {"measurement": "T/C", "setting": "dose: 200.0 mg/kg/injection, schedule: Q01DX009 (ip), vehicle: Klucel (hydroxypropylcellulose) (HPC)", "value": "101 % of control"}, {"measurement": "T/C", "setting": "dose: 400.0 mg/kg/injection, schedule: Q01DX009 (ip), vehicle: Klucel (hydroxypropylcellulose) (HPC)", "value": "101 % of control"}]}
{"smiles": "[O-][n+]1onc2ccc(Cl)cc21", "values": [{"measurement": "T/C", "setting": "dose: 12.5 mg/kg/injection, schedule: Q01DX009 (ip), vehicle: Klucel (hydroxypropylcellulose) (HPC)", "value": "100 % of control"}, {"measurement": "T/C", "setting": "dose: 25.0 mg/kg/injection, schedule: Q01DX009 (ip), vehicle: Klucel (hydroxypropylcellulose) (HPC)", "value": "100 % of control"}, {"measurement": "T/C", "setting": "dose: 37.5 mg/kg/injection, schedule: Q04DX003 (ip), vehicle: Klucel (hydroxypropylcellulose) (HPC)", "value": "95 % of control"}, {"measurement": "T/C", "setting": "dose: 50.0 mg/kg/injection, schedule: Q01DX009 (ip), vehicle: Klucel (hydroxypropylcellulose) (HPC)", "value": "95 % of control"}, {"measurement": "T/C", "setting": "dose: 75.0 mg/kg/injection, schedule: Q04DX003 (ip), vehicle: Klucel (hydroxypropylcellulose) (HPC)", "value": "117 % of control"}, {"measurement": "T/C", "setting": "dose: 150.0 mg/kg/injection, schedule: Q04DX003 (ip), vehicle: Klucel (hydroxypropylcellulose) (HPC)", "value": "86 % of control"}]}
{"smiles": "CCC(C)(OC(C)=O)C(=O)OC1C(=O)OC2CC3C(C)=CC(=O)C(O)C3(C)C3C(O)C(O)C4(C)OCC23C14", "note": "(configuration not stated)", "values": [{"measurement": "T/C", "setting": "dose: 0.01 mg/kg/injection, schedule: Q01DX009 (ip), vehicle: saline + alcohol", "value": "104 % of control"}, {"measurement": "T/C", "setting": "dose: 0.06 mg/kg/injection, schedule: Q01DX009 (ip), vehicle: saline + alcohol", "value": "180 % of control"}, {"measurement": "T/C", "setting": "dose: 0.1 mg/kg/injection, schedule: Q01DX009 (ip), vehicle: saline + alcohol", "value": "161 % of control"}, {"measurement": "T/C", "setting": "dose: 0.12 mg/kg/injection, schedule: Q01DX009 (ip), vehicle: saline + alcohol", "value": "109 % of control"}, {"measurement": "T/C", "setting": "dose: 0.38 mg/kg/injection, schedule: Q01DX009 (ip), vehicle: saline + alcohol", "value": "168 % of control"}, {"measurement": "T/C", "setting": "dose: 0.75 mg/kg/injection, schedule: Q01DX009 (ip), vehicle: saline + alcohol", "value": "161 % of control"}, {"measurement": "T/C", "setting": "dose: 2.0 mg/kg/injection, schedule: Q01DX009 (ip), vehicle: saline + alcohol", "value": "173 % of control"}, {"measurement": "T/C", "setting": "dose: 3.0 mg/kg/injection, schedule: Q01DX009 (ip), vehicle: saline + alcohol", "value": "171 % of control"}]}
{"smiles": "O=C(N/N=C/c1cccc(S(=O)(=O)O)c1)c1ccncc1", "values": [{"measurement": "T/C", "setting": "[5]", "value": "97 % of control"}, {"measurement": "T/C", "setting": "[4]", "value": "86 % of control"}, {"measurement": "T/C", "setting": "[6]", "value": "94 % of control"}]}
